Test results from patent US20260285875A1, “INHIBITORS OF PARG” (858 Therapeutics, Inc., priority 2023, published 2026).

Molecular target: T1, cellular PARG (Homo sapiens, UniProt Q86W56)
T1 construct: endogenous in cells; host or cells: HeLa
Assay: Nuclear PAR accumulation assay (immunofluorescence high-content imaging, MMS-treated HeLa cells)
Format: cell-based
Settings: 1 hour compound then MMS 50 μg/mL for an additional hour
How it was run: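 HeLa cells pretreated with compound for 1 h at 37° C, then given 50 μg/mL MMS for another hour. After methanol fixation, PAR was immunostained with DAPI nuclear counterstain; per-nucleus intensity and percent PAR-positive cells were imaged at 20× (≥1,000 cells/well). IC50 from four-parameter logistic fit.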

T1 sequence (Q86W56 whole entry): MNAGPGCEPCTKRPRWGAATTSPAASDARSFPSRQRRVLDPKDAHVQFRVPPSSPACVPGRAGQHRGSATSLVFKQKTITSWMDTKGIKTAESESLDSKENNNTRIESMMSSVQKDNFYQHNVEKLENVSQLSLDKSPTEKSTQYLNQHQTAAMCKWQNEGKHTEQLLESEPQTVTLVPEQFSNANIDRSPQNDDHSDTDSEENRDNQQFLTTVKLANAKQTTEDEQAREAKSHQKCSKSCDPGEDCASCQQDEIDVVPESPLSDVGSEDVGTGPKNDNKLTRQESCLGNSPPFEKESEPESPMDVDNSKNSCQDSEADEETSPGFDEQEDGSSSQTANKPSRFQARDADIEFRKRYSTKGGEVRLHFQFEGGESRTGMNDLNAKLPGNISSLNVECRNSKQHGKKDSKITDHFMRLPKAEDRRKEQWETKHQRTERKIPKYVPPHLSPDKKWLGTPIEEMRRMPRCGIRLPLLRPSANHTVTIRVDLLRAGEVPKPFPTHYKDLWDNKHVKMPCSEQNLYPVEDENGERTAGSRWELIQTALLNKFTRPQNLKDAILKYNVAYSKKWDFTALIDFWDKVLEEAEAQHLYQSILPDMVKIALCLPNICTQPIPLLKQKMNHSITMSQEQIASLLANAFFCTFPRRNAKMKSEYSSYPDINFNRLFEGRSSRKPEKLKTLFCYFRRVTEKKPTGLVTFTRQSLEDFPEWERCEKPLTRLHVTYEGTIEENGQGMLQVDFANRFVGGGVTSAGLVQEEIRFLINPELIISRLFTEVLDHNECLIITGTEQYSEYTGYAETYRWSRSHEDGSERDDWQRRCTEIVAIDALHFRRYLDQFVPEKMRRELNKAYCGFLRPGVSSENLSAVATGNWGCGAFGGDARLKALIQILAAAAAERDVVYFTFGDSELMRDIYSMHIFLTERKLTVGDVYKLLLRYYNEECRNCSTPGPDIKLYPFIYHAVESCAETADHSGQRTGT

Structure (SMILES) | IC50 [nM]
[2H]C([2H])(c1cnn(C)c1)N1C(=O)c2cc(S(=O)(=O)NC3(C)CC3)cc(Cl)c2N2C1=NC[C@@H]2C#CC1CC1 [Example 92, (S)-9-chloro-1-(cyclopropylethynyl)-4-((1-methyl-1H-pyrazol-4-yl)methyl-d2)-N-(1-methylcyclopropyl)-5-oxo-1,2,4,5-tetrahydroimidazo[1,2-a]quinazoline-7-sulfonamide] | 100 to 1000
[2H]C([2H])(c1cnn(C)c1)N1C(=O)c2cc(S(=O)(=O)NC3(C)CC3)cc(Br)c2N2C1=NC[C@@H]2C#CC1CC1 [Example 95, (S)-9-bromo-1-(cyclopropylethynyl)-4-((1-methyl-1H-pyrazol-4-yl)methyl-d2)-N-(1-methylcyclopropyl)-5-oxo-1,2,4,5-tetrahydroimidazo[1,2-a]quinazoline-7-sulfonamide] | 100 to 1000
[2H]C([2H])(c1cnn(C)c1)N1C(=O)c2cc(S(=O)(=O)NC3(C)CC3)ccc2N2C1=NC[C@H]2C#Cc1cnn(C)c1 [Example 97, (R)-1-((1-methyl-1H-pyrazol-4-yl)ethynyl)-4-((1-methyl-1H-pyrazol-4-yl)methyl-d2)-N-(1-methylcyclopropyl)-5-oxo-1,2,4,5-tetrahydroimidazo[1,2-a]quinazoline-7-sulfonamide] | < 100
[2H]C([2H])(c1cnn(C)c1)N1C(=O)c2cc(S(=O)(=O)NC3(C)CC3)cc(Br)c2N2C1=NC[C@H]2C#C [Example 98, (R)-9-bromo-1-ethynyl-4-((1-methyl-1H-pyrazol-4-yl)methyl-d2)-N-(1-methylcyclopropyl)-5-oxo-1,2,4,5-tetrahydroimidazo[1,2-a]quinazoline-7-sulfonamide] | < 100
CN(C)CC#C[C@@H]1CN=C2N(Cc3cnn(C)c3)C(=O)c3cc(S(=O)(=O)NC4(C)CC4)cc(Cl)c3N21 [Example 100, (R)-9-chloro-1-(3-(dimethylamino)prop-1-yn-1-yl)-4-((1-methyl-1H-pyrazol-4-yl)methyl)-N-(1-methylcyclopropyl)-5-oxo-1,2,4,5-tetrahydroimidazo[1,2-a]quinazoline-7-sulfonamide] | < 100
[2H]C([2H])(c1cnn(C)c1)N1C(=O)c2cc(S(=O)(=O)NC3(C)CC3)ccc2N2C1=NC[C@H]2C#Cc1cn(C)nc1F [Example 101, (R)-1-((3-fluoro-1-methyl-1H-pyrazol-4-yl)ethynyl)-4-((1-methyl-1H-pyrazol-4-yl)methyl-d2)-N-(1-methylcyclopropyl)-5-oxo-1,2,4,5-tetrahydroimidazo[1,2-a]quinazoline-7-sulfonamide] | < 100
Cn1cc(CN2C(=O)c3cc(S(=O)(=O)NC4(C)CC4)cc(Cl)c3N3C2=NC[C@H]3C#CCN)cn1 [Example 103, (R)-1-(3-aminoprop-1-yn-1-yl)-9-chloro-4-((1-methyl-1H-pyrazol-4-yl)methyl)-N-(1-methylcyclopropyl)-5-oxo-1,2,4,5-tetrahydroimidazo[1,2-a]quinazoline-7-sulfonamide] | 100 to 1000
[2H]C([2H])(c1cnn(C)c1)N1C(=O)c2cc(S(=O)(=O)NC3(C)CC3)ccc2N2C1=NC[C@H]2C#Cc1cccc(N)n1 [Example 104, (R)-1-((6-aminopyridin-2-yl)ethynyl)-4-((1-methyl-1H-pyrazol-4-yl)methyl-d2)-N-(1-methylcyclopropyl)-5-oxo-1,2,4,5-tetrahydroimidazo[1,2-a]quinazoline-7-sulfonamide] | < 100
[2H]C([2H])(c1cnn(C)c1)N1C(=O)c2cc(S(=O)(=O)NC3(C)CC3)ccc2N2C1=NC[C@H]2C#CC(C)(C)N [Example 105, (R)-1-(3-amino-3-methylbut-1-yn-1-yl)-4-((1-methyl-1H-pyrazol-4-yl)methyl-d2)-N-(1-methylcyclopropyl)-5-oxo-1,2,4,5-tetrahydroimidazo[1,2-a]quinazoline-7-sulfonamide] | 100 to 1000
[2H]C([2H])(c1cnn(C)c1)N1C(=O)c2cc(S(=O)(=O)NC3(C)CC3)ccc2N2C1=N[C@H]1CNC[C@H]12 [Example 106, (7aS,10aR)-6-((1-methyl-1H-pyrazol-4-yl)methyl-d2)-N-(1-methylcyclopropyl)-5-oxo-6,7a,8,9,10,10a-hexahydro-5H-pyrrolo[3′,4′:4,5]imidazo[1,2-a]quinazoline-3-sulfonamide] | 100 to 1000
[2H]C([2H])(c1cnn(C)c1)N1C(=O)c2cc(S(=O)(=O)NC3(C)CC3)ccc2N2C1=NCC21CC(CN(C)C)C1 (stereo not drawn) [Example 109, 3-((dimethylamino)methyl)-4′-((1-methyl-1H-pyrazol-4-yl)methyl-d2)-N-(1-methylcyclopropyl)-5′-oxo-4′,5′-dihydro-2′H-spiro[cyclobutane-1,1′-imidazo[1,2-a]quinazoline]-7′-sulfonamide] | 100 to 1000
[2H]C([2H])(c1cnn(C)c1)N1C(=O)c2cc(S(=O)(=O)NC3(C)CC3)cc(Cl)c2N2C1=NC[C@H]2C#C [Example 111, (R)-9-chloro-1-ethynyl-4-((1-methyl-1H-pyrazol-4-yl)methyl-d2)-N-(1-methylcyclopropyl)-5-oxo-1,2,4,5-tetrahydroimidazo[1,2-a]quinazoline-7-sulfonamide] | < 100
[2H]C([2H])(c1cnn(C)c1)N1C(=O)c2cc(S(=O)(=O)NC3(C)CC3)ccc2N2C1=NC[C@H]2C#CC1(N(C)C)CC1 [Example 112, (R)-1-((1-(dimethylamino)cyclopropyl)ethynyl)-4-((1-methyl-1H-pyrazol-4-yl)methyl-d2)-N-(1-methylcyclopropyl)-5-oxo-1,2,4,5-tetrahydroimidazo[1,2-a]quinazoline-7-sulfonamide] | < 100

Results, then the compound that gave them:

IC50 [nM] | Structure (SMILES)
100 to 1000 | Cn1cc(CN2C(=O)c3cc(S(=O)(=O)NC4(C)CC4)ccc3N3C2=NC[C@@H]3C2CCCC2)cn1 [Example 93, (S)-1-cyclopentyl-4-((1-methyl-1H-pyrazol-4-yl)methyl)-N-(1-methylcyclopropyl)-5-oxo-1,2,4,5-tetrahydroimidazo[1,2-a]quinazoline-7-sulfonamide]
100 to 1000 | C#C[C@H]1CN=C2N(Cc3cnn(C)c3)C(=O)c3cc(S(=O)(=O)NC4(C)CC4)cc(Br)c3N21 [Example 94, (S)-9-bromo-1-ethynyl-4-((1-methyl-1H-pyrazol-4-yl)methyl)-N-(1-methylcyclopropyl)-5-oxo-1,2,4,5-tetrahydroimidazo[1,2-a]quinazoline-7-sulfonamide]
< 100 | [2H]C([2H])(c1cnn(C)c1)N1C(=O)c2cc(S(=O)(=O)NC3(C)CC3)ccc2N2C1=NC[C@H]2C#CCC(C)C [Example 96, (R)-4-((1-methyl-1H-pyrazol-4-yl)methyl-d2)-N-(1-methylcyclopropyl)-1-(4-methylpent-1-yn-1-yl)-5-oxo-1,2,4,5-tetrahydroimidazo[1,2-a]quinazoline-7-sulfonamide]
< 100 | Cn1cc(CN2C(=O)c3cc(S(=O)(=O)NC4(C)CC4)ccc3N3C2=NC[C@H]3C#CC(F)F)cn1 [Example 99, (R)-1-(3,3-difluoroprop-1-yn-1-yl)-4-((1-methyl-1H-pyrazol-4-yl)methyl)-N-(1-methylcyclopropyl)-5-oxo-1,2,4,5-tetrahydroimidazo[1,2-a]quinazoline-7-sulfonamide]
< 100 | Cc1cc([C@@H]2CN=C3N(Cc4cnn(C)c4)C(=O)c4cc(S(=O)(=O)NC5(C)CC5)ccc4N32)on1 [Example 107, (S)-4-((1-methyl-1H-pyrazol-4-yl)methyl)-N-(1-methylcyclopropyl)-1-(3-methylisoxazol-5-yl)-5-oxo-1,2,4,5-tetrahydroimidazo[1,2-a]quinazoline-7-sulfonamide]
< 100 | [2H]C([2H])(c1cnn(C)c1)N1C(=O)c2cc(S(=O)(=O)NC3(C)CC3)ccc2N2C1=NC[C@H]2COc1cnn(C)c1 [Example 108, (S)-4-((1-methyl-1H-pyrazol-4-yl)methyl-d2)-1-(((1-methyl-1H-pyrazol-4-yl)oxy)methyl)-N-(1-methylcyclopropyl)-5-oxo-1,2,4,5-tetrahydroimidazo[1,2-a]quinazoline-7-sulfonamide]
< 100 | [2H]C([2H])(c1cnn(C)c1)N1C(=O)c2cc(S(=O)(=O)NC3(C)CC3)ccc2N2C1=NC[C@H]2COc1ccccn1 [Example 110, (S)-4-((1-methyl-1H-pyrazol-4-yl)methyl-d2)-N-(1-methylcyclopropyl)-5-oxo-1-((pyridin-2-yloxy)methyl)-1,2,4,5-tetrahydroimidazo[1,2-a]quinazoline-7-sulfonamide]
< 100 | [2H]C([2H])(c1cnn(C)c1)N1C(=O)c2cc(S(=O)(=O)NC3(C)CC3)ccc2N2C1=NC[C@H]2CSC [Example 113, (S)-4-((1-methyl-1H-pyrazol-4-yl)methyl-d2)-N-(1-methylcyclopropyl)-1-((methylthio)methyl)-5-oxo-1,2,4,5-tetrahydroimidazo[1,2-a]quinazoline-7-sulfonamide]
100 to 1000 | [2H]C([2H])(c1cnn(C)c1)N1C(=O)c2cc(S(=O)(=O)NC3(C)CC3)ccc2N2C1=NC[C@H]2COCCN(C)C [Example 114, (S)-1-((2-(dimethylamino)ethoxy)methyl) -4-((1-methyl-1H-pyrazol-4-yl)methyl-d2)-N-(1-methylcyclopropyl)-5-oxo-1,2,4,5-tetrahydroimidazo[1,2-a]quinazoline-7-sulfonamide]
< 100 | Cn1cc(CN2C(=O)c3cc(S(=O)(=O)NC4(C)CC4)ccc3N3C2=NC[C@H]3COC2CC2)cn1 [Example 115, (S)-1-(cyclopropoxymethyl)-4-((1-methyl-1H-pyrazol-4-yl)methyl)-N-(1-methylcyclopropyl)-5-oxo-1,2,4,5-tetrahydroimidazo[1,2-a]quinazoline-7-sulfonamide]
< 100 | Cn1cc(CN2C(=O)c3cc(S(=O)(=O)NC4(C)CC4)ccc3N3C2=NC[C@H]3C#Cc2ccncc2)cn1 [Example 116, (R)-4-((1-methyl-1H-pyrazol-4-yl)methyl)-N-(1-methylcyclopropyl)-5-oxo-1-(pyridin-4-ylethynyl)-1,2,4,5-tetrahydroimidazo[1,2-a]quinazoline-7-sulfonamide]
